Data taken from patent publication US20240140953A1, “INHIBITORS OF MENIN-MLL INTERACTION” (BIOMEA FUSION, INC., priority 2018, published 2024).
Like-named read-outs stand apart in the source and are kept apart here.

Assays:
[1] = tested on: MOLM-13; assay: Long term proliferation assay (Table 3A), MOLM-13; type: cell-based; conditions: Homo sapiens
Description: (§1) Example 5b: IC50 determination of compounds of invention in various cell lines (Long Term Proliferation Assay)
(§2) The following 5 cell lines are used or can be used for the long term proliferation assay.
(§3) Compounds of invention are tested in the 5 suspension lines by 14-day long-term proliferation assay.
(§4) The compound is tested in 10-pt dose titration (client will determine the starting concentration and the dilution scheme) and the final DMSO concentration is kept at 0.2%.
(§5) Vehicle and media control are also included. All treatments are done in triplicate.
(§6) 3 plates are used for each cell line and 15 plates are used for the 5 cell lines.
(§7) • 1) On Day 0, in a flat bottom 96-well plate, add 100 μL of cells per well at the densities optimized. • 2) Prepare compounds in DMSO at 500× final concentration. Dilute the compounds with DMSO at the dilution. • 3) Dilute the compounds in media at 3×final concentration. Add 50 μL of compound or DMSO at 3× final concentration to each well. Final volume in each well is 150 μL, and final concentration of DMSO is 0.2%. Also include 3 untreated control wells, by adding 50 μL of media alone. 4) Incubate plates for 96 hours. • 5) Count the cells using the Acumen, with capabilities for 96-well plates. Pipette cells up and down to mix in each well, and add desired volume of cells to a new flat bottom poly-D-lysine 96-well plate. Add Calcein AM at 1 μM final concentration. Let cells sit at RT for 10 mins followed by a quick spin to get cells settled on the bottom of the wells. Incubate the plate for additional 40 mins in the incubator. Take out the plate and read by Acumen. Calculate the cell numbers taken into account the dilution factors. • 6) Split the master plate. To do this take the total viable cell count calculated using step 5). Take the average of the replicates for each dose in order to be used in splitting the cells. • 7) Use a 96 well V-bottom plate to spin down the cells to remove old media and compound to split the cells. Based on the split ratio place the proper amount of media and cells into the V-bottom plate, and spin the plate at 1100 rpm for 5 minutes. • 8) Following the spin remove the media, careful not to disturb the cellpellet. • 9) Re-suspend pellet in 100 μL fresh media, and add to a new 96-well flat bottom plate. • 10) Add fresh compound, in the same manner as Step 3). • 11) Incubate plates for 72 hours. Repeat steps 5)-10) on Day 7. • 12) Incubate plates for 96 hours. Repeat Step 5)-10) on Day 11. • 13) Incubate 72 hours and repeat step 5) to take a final count. • 14) Data Analysis
(§8) To calculate growth for days 4, 7, 11, and 14: • Calculate the split factor for day 4 to 7, day 7 to 11, and day 11-14.

[2] = tested on: MV-4-11; assay: Long term proliferation assay (Table 3A), MV-4-11; type: cell-based; conditions: Homo sapiens, MV4-11
Description: as §1, §2, §3, §4, §5, §6, §7, §8

[3] = tested on: HL-60; assay: Proliferation study, CellTiterGlo, 4 days (Example 102), HL-60; type: cell-based; conditions: HL-60, 4 days treatment; for HL-60 % max: maximal inhibition; for IC50: Homo sapiens, 96 h, CellTiterGlo
Excerpt: (§9) The objective of the study was to evaluate the ability of representative compounds of the present invention, inhibitors of Menin/MLL interaction to inhibit cell proliferation. The proliferation inhibitory effect was investigated in two human MLL-leukemia cells selected on the bases of MLL fusion protein and listed in Table 102. HL-60 cell line was used as negative control.
(§10) ATP is present in all metabolically active cells and is considered as a marker for cell viability and proliferation. The metabolic cell activity was determined using the CellTiter-Glo kit from Promega, an ATP monitoring system based on the production of luminescence by the reaction of ATP with added UltraGlo® recombinant luciferase (Kawano et al., 2016), according to the supplier's experimental recommendations.
(§11) The described assay evaluates the ability of 4 representative compounds to inhibit the cell proliferation in the human MLL-leukemia cells plus a negative control cell line.
(§12) The assay provides potency values (IC50) for each test compound at a single time point Day 4 (T4).
(§13) Seven concentrations of the compounds (2.00E-05-6.67E-06-2.22E-06-7.41E-07-2.47E-07-8.23E-08-2.74E-08M), were assessed in duplicate in an individual test occasion in all the cell lines. MI-503 (Borkin et al., 2015) was used as reference compound and was tested at the same concentrations as the NCEs. 100% of proliferation is represented by the untreated cells (0.2% DMSO). The cell growth was monitored up to 4 days in culture.
(§14) MV4-11, MOLM-13 and HL-60 cells (see Table 2) were maintained in RPMI-1640 medium (Invitrogen, Cat. n. 618700, Batch n. 1965930) supplemented with 10% of Heat Inactivated FBS (Invitrogen, Cat n. 10500, Batch n. 08Q8078K) and 1% Pen-Strep (Invitrogen, Cat. N. 15140, Batch n. 1910859) and cultured at 37° C. in a humidified incubator with 5% CO2. All the cell lines grow in suspension and the cell density was maintained in a range of 2×10^5-1×10^6 viable cells/ml. Cells were pelleted at 130 g×5 min and conditioned medium was used to dilute the cell suspension.
(§15) Test items were dissolved in glass vials at 10 mM in DMSO with purity ≥99.9% (Sigma, D8418, batch n. SHBH4245V) and stored at −20° C. in 1.5 mL Eppendorf tubes.
(§16) Serial dilutions 1 to 3 in DMSO 100% were prepared starting from a 10 mM stock solutions to generate 7 points concentration response curve (CRC).
(§17) For each plate to test, one 0.4 μL copy plate and four 0.3 μL copy plates were then stamped into 96-well plates not treated for cell adhesion (Sarstedt—cat.no. 82.1581.001) by acoustic liquid Handling, Echo, at a concentration which was 500 fold the final assay concentration. Stamped plates were stored at −20° C. The final concentrations for the reference compound, MI-503, and the test items were: 2.00E-05, 6.67E-06, 2.22E-06, 7.41E-07, 2.47E-07, 8.23E-08 and 2.74E-08 M.
(§18) Cells were plated in 96-well flat bottom microtiter plates at cell density of 15,000 cells/ml for HL-60, 1000 cells/ml for MOLM-13 and 10,000 cell/ml for MV4-11. Cells were treated with 0.2% DMSO (Sigma, D8418, batch n. SHBH4245V) or serial dilutions of compounds (0.027 μM-20 μM) in DMSO (0.2% final concentration). Cells were incubated in a 5% CO2 incubator at 37° C. for 4 days. A CellTiterGlo viability assay (Promega) was employed. Luminescence was read by using VictorV (Perkin Elmer) multilabel plate reader using the standard protocol for luminescence in 96 well plate. The experiment was performed in duplicate.
(§19) Data were expressed as % of inhibition compared to the 0.2% DMSO negative control, and was calculated as follows: […]
(§20) CRCs were analysed by GraphPad and IC50 values were calculated by non-linear regression using 4 parameter-logistic equation. IC50 (μM) values were reported in the final data table. The curve fittings were performed leaving free all the parameters. Any constrain were reported in the results table.

[4] = molecular target: menin (Homo sapiens (Human), UniProt O00255); assay: Kd (Table 3A); type: binding
menin, sequence (O00255 whole entry, species assumed): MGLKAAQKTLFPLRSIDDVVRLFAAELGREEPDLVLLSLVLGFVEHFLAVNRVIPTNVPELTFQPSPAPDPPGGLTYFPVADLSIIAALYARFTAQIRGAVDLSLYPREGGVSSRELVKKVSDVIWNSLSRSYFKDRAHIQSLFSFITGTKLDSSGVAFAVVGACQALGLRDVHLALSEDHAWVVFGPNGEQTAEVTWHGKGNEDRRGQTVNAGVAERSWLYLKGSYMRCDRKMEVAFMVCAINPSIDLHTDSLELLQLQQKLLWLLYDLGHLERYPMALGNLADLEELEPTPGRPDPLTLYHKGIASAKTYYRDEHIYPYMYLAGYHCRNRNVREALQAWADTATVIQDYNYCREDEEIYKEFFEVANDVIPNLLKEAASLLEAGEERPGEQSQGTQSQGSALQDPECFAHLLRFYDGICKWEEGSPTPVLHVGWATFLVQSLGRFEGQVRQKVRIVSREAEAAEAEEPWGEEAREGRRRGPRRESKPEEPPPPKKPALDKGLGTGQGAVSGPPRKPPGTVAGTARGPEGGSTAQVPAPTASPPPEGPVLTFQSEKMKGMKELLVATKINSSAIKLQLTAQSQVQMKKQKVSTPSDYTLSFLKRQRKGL

[5] = tested on: MOLM-13 (MLL-AF9); assay: Proliferation study, CellTiterGlo, 4 days (Example 102), MOLM-13; type: cell-based, human; conditions: MOLM-13, 4 days treatment; for IC50: Homo sapiens, 96 h, CellTiterGlo; for MOLM-13 (MLL-AF9) % max: maximal inhibition
Excerpt: as §9, §10, §11, §12, §13, §14, §15, §16, §17, §18, §19, §20

[6] = tested on: MV4-11 (MLL-AF4); assay: Proliferation study, CellTiterGlo, 4 days (Example 102), MV4-11; type: cell-based, human; conditions: MV4-11, 4 days treatment; for IC50: Homo sapiens, MV4-11, 96 h, CellTiterGlo; for MV4-11 (MLL-AF4) % max: maximal inhibition
Excerpt: as §9, §10, §11, §12, §13, §14, §15, §16, §17, §18, §19, §20

[7] = 96 h, MOLM-13, Day 4, read-out: MOLM-13 Day 4 IC50
[8] = MV-4-11, Day 4, read-out: MV-4-11 Day 4 IC50
[9] = read-out: HL-60 pIC50 (converted)
[10] = read-out: MOLM-13 (MLL-AF9) IC50
[11] = read-out: MOLM-13 (MLL-AF9) pIC50 (converted)
[12] = read-out: MV4-11 (MLL-AF4) IC50
[13] = read-out: MV4-11 (MLL-AF4) pIC50 (converted)
[14] = 264 h, MOLM-13, Day 11, read-out: MOLM-13 Day 11 IC50
[15] = MV-4-11, Day 11, read-out: MV-4-11 Day 11 IC50

Work on `O=C(Cc1cc(-c2cccnc2)n[nH]1)Nc1ccc(-c2cc3c(N4CCOCC4)ncnc3[nH]2)cc1` [Compound 10, N-{4-[4-(morpholin-4-yl)-7H-pyrrolo[2,3-d]pyrimidin-6-yl]phenyl}-2-[3-(pyridin-3-yl)-1H-pyrazol-5-yl]acetamide] yielded an IC50 [1, 7] of 0.31 µM, an IC50 [2, 8] of 0.22 µM and an HL-60 % max [3] of 65%. For the same compound, the IC50 ([3]; read-out: HL-60 IC50) was 0.36 µM, the IC50 [3, 9] was 0.363 µM and the Kd [4] was 2.7 ± 4 µM. For the same compound, the IC50 [5, 10] was 0.31 µM, the IC50 [5, 11] was 0.309 µM and the “MOLM-13 (MLL-AF9) % max” value [5] was 94%. For the same compound, the IC50 [6, 12] was 0.22 µM, the IC50 [6, 13] was 0.224 µM and the “MV4-11 (MLL-AF4) % max” value [6] was 100%.
Work on `CC(C)c1c(-c2cccnc2)noc1NC(=O)Nc1ccc(-c2cc3c(N4CCOCC4)ncnc3[nH]2)cc1` [Compound 6, 1-{4-[4-(morpholin-4-yl)-7H-pyrrolo[2,3-d]pyrimidin-6-yl]phenyl}-3-[4-(propan-2-yl)-3-(pyridin-3-yl)-1,2-oxazol-5-yl]urea] yielded an IC50 [1, 7] of 0.178 µM, an IC50 [1, 14] of 0.05 µM and an IC50 [2, 8] of 0.229 µM. The IC50 [2, 15] was 0.074 µM.
With `CC(C)c1cc(-c2cc3c(N4CCOCC4)ncnc3[nH]2)ccc1NC(=O)Nc1cc(-c2cccnc2)no1` [Compound 7, 1-{4-[4-(morpholin-4-yl)-7H-pyrrolo[2,3-d]pyrimidin-6-yl]-2-(propan-2-yl)phenyl}-3-[3-(pyridin-3-yl)-1,2-oxazol-5-yl]urea] the IC50 [1, 7] was 0.933 µM, the IC50 [1, 14] was 0.871 µM and the IC50 [2, 8] was 0.891 µM. For the same compound, the IC50 [2, 15] was 0.631 µM.
In the case of `O=C(Cc1cc(-c2cccnc2)no1)Nc1ccc(-c2cc3c(N4CCOCC4)ncnc3[nH]2)cc1` [Compound 5, N-{4-[4-(morpholin-4-yl)-7H-pyrrolo[2,3-d]pyrimidin-6-yl]phenyl}-2-[3-(pyridin-3-yl)-1,2-oxazol-5-yl]acetamide], the IC50 [1, 7] is reported as 0.115 µM, the IC50 [1, 14] is reported as 0.032 µM and the IC50 [2, 8] is reported as 0.129 µM. For the same compound, the IC50 [2, 15] was 0.066 µM.
`Cc1cn(-c2ncnc3[nH]c(-c4ccc(NC(=O)Cc5cc(-c6cccnc6)n[nH]5)cc4)cc23)cn1` [Compound 13, N-{4-[4-(4-methyl-1H-imidazol-1-yl)-7H-pyrrolo[2,3-d]pyrimidin-6-yl]phenyl}-2-[3-(pyridin-3-yl)-1H-pyrazol-5-yl]acetamide] showed an IC50 [1, 7] of 1.23 µM, an IC50 [2, 8] of 0.91 µM and an HL-60 % max [3] of 112%. The IC50 ([3]; read-out: HL-60 IC50) was 2.75 µM, the IC50 [3, 9] was 2.75 µM and the IC50 [5, 10] was 1.23 µM. The IC50 [5, 11] was 1.23 µM, the “MOLM-13 (MLL-AF9) % max” value [5] was 101% and the IC50 [6, 12] was 0.91 µM. The IC50 [6, 13] was 0.912 µM and the “MV4-11 (MLL-AF4) % max” value [6] was 105%.
